Data on 23 compounds can be found in patent US8163768B2, “1,4-dihydropyridine-fused heterocycles, process for preparing the same, use and compositions containing them” (Aventis Pharma S.A.., priority 2005, dated 2012).

Counter-ions that a name gives are not always drawn.

For assay [1], the target named is T1, Aurora2 (Aurora-A) (Homo sapiens, UniProt O14965).
T1 construct: Aurora-A: the full length recombinant protein including an N-terminal poly-histidine tail has been expressed in E. coli; poly-histidine (N); made in house; host or cells: E. coli
T1 sequence (O14965 1-403): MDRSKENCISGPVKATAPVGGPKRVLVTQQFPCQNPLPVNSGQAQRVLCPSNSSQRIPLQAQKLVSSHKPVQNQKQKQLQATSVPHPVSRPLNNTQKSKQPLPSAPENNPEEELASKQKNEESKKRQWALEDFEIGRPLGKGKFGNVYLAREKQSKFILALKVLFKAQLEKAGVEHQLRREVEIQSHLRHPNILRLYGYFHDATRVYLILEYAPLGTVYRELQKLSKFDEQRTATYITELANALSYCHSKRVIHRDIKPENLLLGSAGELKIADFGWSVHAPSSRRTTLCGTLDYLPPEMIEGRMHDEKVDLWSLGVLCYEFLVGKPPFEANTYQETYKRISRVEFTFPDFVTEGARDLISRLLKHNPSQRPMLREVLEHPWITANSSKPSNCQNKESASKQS
Put plainly: Aurora 2 (Aurora A) kinase radioactivity scintillation assay using nickel chelate Flash plates. The format is biochemical. The settings on record: 10 nM Aurora-A, 500 nM NuMA substrate, 1 μM ATP with [33P] ATP, 10 mM MgCl2, 30 minutes, 37° C. In short, it runs like this:
(§1)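 10 nM Aurora-B or Aurora-A with 500 nM NuMA-His substrate, 1 μM ATP plus [³³P]ATP, in 50 mM NaCl, 1 mM DTT and 5 mM (B) or 10 mM (A) MgCl2, 30 min at 37° C on nickel-chelate plates. Incorporated ³³P counted after washing, background-subtracted; IC50 fitted from % inhibition versus concentration.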

The target in assay [2] is T2, Aurora1 (Aurora-B) (Homo sapiens, UniProt Q96GD4).
T2 construct: Aurora-B: the full length protein (His tagged in N-terminal) has been co expressed in SF9 cells; poly-histidine (N); made in house; host or cells: SF9 cells
T2 sequence (Q96GD4 whole entry, species assumed): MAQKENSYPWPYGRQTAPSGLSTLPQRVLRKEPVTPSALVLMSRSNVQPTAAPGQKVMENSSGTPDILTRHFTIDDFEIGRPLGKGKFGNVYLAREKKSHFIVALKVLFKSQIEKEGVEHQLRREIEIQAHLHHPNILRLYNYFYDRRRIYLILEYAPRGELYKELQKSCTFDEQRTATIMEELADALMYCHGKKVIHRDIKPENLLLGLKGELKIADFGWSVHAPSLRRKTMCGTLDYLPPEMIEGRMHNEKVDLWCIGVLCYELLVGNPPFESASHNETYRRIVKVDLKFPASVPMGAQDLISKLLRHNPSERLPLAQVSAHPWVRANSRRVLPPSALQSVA
T2 sequence (Q9NQS7 821-918 partner limits assumed, species assumed): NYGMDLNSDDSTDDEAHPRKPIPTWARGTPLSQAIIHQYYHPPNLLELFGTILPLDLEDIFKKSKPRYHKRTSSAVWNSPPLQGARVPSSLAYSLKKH
Put plainly: Aurora 1 (Aurora B) kinase radioactivity scintillation assay using nickel chelate Flash plates. The format is biochemical. To be noted: 10 nM Aurora-B (co expressed with C3 fragment of INCEP), 500 nM NuMA substrate, 1 μM ATP with [33P] ATP, 5 mM MgCl2, 30 minutes, 37° C. In short, it runs like this: as §1

Consider `O=C1CNCC2=C1C(c1ccc(Sc3nc4cc(C(F)(F)F)ccc4[nH]3)o1)c1c[nH]nc1N2` (stereo not shown) [Example 97], for which the half-inhibitory concentration (IC50) in assay [1] amounted to 292 nM; in assay [2] it was 47 nM.
The like results for `Cc1nc(Sc2ccc(C3C4=C(CCCC4=O)Nc4n[nH]cc43)o2)[nH]c1C` (stereo not shown) [Example 98, 4-[5-(4,5-Dimethyl-1H-imidazol-2-ylsulfanyl)-furan-2-yl]-2,4,6,7,8,9-hexahydro-pyrazolo[3,4-b]quinolin-5-one] were, in that order, 338 nM and 231 nM.
The corresponding values for `Cc1nc(Sc2ccc(C3C4=C(CC(C)(C)CC4=O)Nc4n[nH]cc43)o2)[nH]c1C` (stereo not shown) [Example 99, 4-[5-(4,5-Dimethyl-1H-imidazol-2-ylsulfanyl)-furan-2-yl]-7,7-dimethyl-2,4,6,7,8,9-hexahydro-pyrazolo[3,4-b]quinolin-5-one] are 135 nM and 124 nM.
As for `Cc1nc(Sc2ccc(C3C4=C(CNCC4=O)Nc4n[nH]cc43)o2)[nH]c1C` (stereo not shown) [Example 100, 4-[5-(4,5-Dimethyl-1H-imidazol-2-ylsulfanyl)-furan-2-yl]-2,4,6,7,8,9-hexahydro-pyrazolo[3,4-b]-1,7-naphthyridin-5-one; compound with trifluoro-acetic acid], the figures for the 50% inhibitory concentration (IC50) in assay [1] and in assay [2] were 5440 nM and 5430 nM, respectively.
The corresponding values for `Cc1ccc2[nH]c(Sc3ccc(C4C5=C(CCCC5=O)Nc5[nH]ncc54)s3)nc2c1` (stereo not shown) [Example 101, 4-[5-(5-Methyl-1H-benzimidazol-2-ylsulfanyl)-thiophen-2-yl]-1,4,6,7,8,9-hexahydro-pyrazolo[3,4-b]quinolin-5-one] are 1710 nM and 60 nM.
For the compound `Cc1ccc2[nH]c(Sc3ccc(C4C5=C(CC(C)(C)CC5=O)Nc5n[nH]cc54)s3)nc2c1` (stereo not shown) [Example 102, 7,7-Dimethyl-4-[5-(5-methyl-1H-benzoimidazol-2-ylsulfanyl)-thiophen-2-yl]-2,4,6,7,8,9-hexahydro-pyrazolo[3,4-b]quinolin-5-one], the IC50 was 596 nM in assay [1] and 45 nM in assay [2].
The like results for `Cc1ccc2[nH]c(Sc3ccc(C4C5=C(CNCC5=O)Nc5n[nH]cc54)s3)nc2c1` (stereo not shown) [Example 103, 4-[5-(5-Methyl-1H-benzoimidazol-2-ylsulfanyl)-thiophen-2-yl]-2,4,6,7,8,9-hexahydro-pyrazolo[3,4-b]-1,7-naphthyridin-5-one; compound with trifluoro-acetic acid] were, in that order, 4720 nM and 299 nM.
The like results for `CCOC(=O)c1[nH]cc2c1NC1=C(C(=O)CCCC1)C2c1ccc(Sc2nc3ccccc3[nH]2)o1` (stereo not shown) [Example 107, 10-[5-(1H-Benzoimidazol-2-ylsulfanyl)-furan-2-yl]-9-oxo-2,4,5,6,7,8,9,10-octahydro-2,4-diaza-cyclohepta[f]indene-3-carboxylic acid ethyl ester, compound with trifluoroacetic acid] were, in that order, 2940 nM and 2580 nM.
The like results for `CCOC(=O)c1[nH]cc2c1NC1=C(C(=O)CCC1)C2c1ccc(Sc2nc3cc(C)ccc3[nH]2)o1` (stereo not shown) [Example 108, 9-[5-(5-Methyl-1H-benzimidazol-2-ylsulfanyl)-furan-2-yl]-8-oxo-4,5,6,7,8,9-hexahydro-2H-pyrrolo[3,4-b]quinoline-3-carboxylic acid ethyl ester] were, in that order, 41 nM and 8 nM.
In the case of `CCOC(=O)c1[nH]cc2c1NC1=C(C(=O)CC(C)(C)C1)C2c1ccc(Sc2nc3cc(C)ccc3[nH]2)o1` (stereo not shown) [Example 109, 6,6-Dimethyl-9-[5-(5-methyl-1H-benzimidazol-2-ylsulfanyl)-furan-2-yl]-8-oxo-4,5,6,7,8,9-hexahydro-2H-pyrrolo[3,4-b]quinoline-3-carboxylic acid ethyl ester], the IC50 is 63 nM in assay [1] and 17 nM in assay [2].
The corresponding values for `CCOC(=O)c1[nH]cc2c1NC1=C(C(=O)CNC1)C2c1ccc(Sc2nc3cccnc3[nH]2)o1` (stereo not shown) [Example 113, 9-[5-(3H-Imidazo[4,5-b]pyridin-2-ylsulfanyl)-furan-2-yl]-8-oxo-4,5,6,7,8,9-hexahydro-2H-pyrrolo[3,4-b][1,7]naphthyridine-3-carboxylic acid ethyl ester] are 112 nM and 23 nM.
With `CCOC(=O)c1[nH]cc2c1NC1=C(C(=O)CCC1)C2c1ccc(Sc2nc3ccncc3[nH]2)o1` (stereo not shown) [Example 117, 9-[5-(3H-Imidazo[4,5-c]pyridin-2-ylsulfanyl)-furan-2-yl]-8-oxo-4,5,6,7,8,9-hexahydro-2H-pyrrolo[3,4-b]quinoline-3-carboxylic acid ethyl ester], the IC50 in assay [1] worked out at 3090 nM; in assay [2], 194 nM.
The like results for `CCOC(=O)c1[nH]cc2c1NC1=C(C(=O)CNC1)C2c1ccc(Sc2nc3cc(O)ccc3[nH]2)o1` (stereo not shown) [Example 123, 9-[5-(5-Hydroxy-1H-benzimidazol-2-ylsulfanyl)-furan-2-yl]-8-oxo-4,5,6,7,8,9-hexahydro-2H-pyrrolo[3,4-b]-1,7-naphthyridine-3-carboxylic acid ethyl ester hydrochloride] were, in that order, 813 nM and 72 nM.
The corresponding values for `CC1(C)CC(=O)C2=C(C1)Nc1c(c[nH]c1C(=O)O)C2c1ccc(Sc2nc3ccccc3[nH]2)o1` (stereo not shown) [Example 124, 9-[5-(1H-Benzimidazol-2-ylsulfanyl)-furan-2-yl]-6,6-dimethyl-8-oxo-4,5,6,7,8,9-hexahydro-2H-pyrrolo[3,4-b]quinoline-3-carboxylic acid] are 20 nM and 15 nM.
The corresponding values for `CC1(C)CC(=O)C2=C(C1)Nc1c(c[nH]c1C(N)=O)C2c1ccc(Sc2nc3ccccc3[nH]2)o1` (stereo not shown) [Example 125, 9-[5-(1H-Benzimidazol-2-ylsulfanyl)-furan-2-yl]-6,6-dimethyl-8-oxo-4,5,6,7,8,9-hexahydro-2H-pyrrolo[3,4-b]quinoline-3-carboxamide] are 23 nM and 11 nM.
As for `CCOC(=O)c1[nH]cc2c1NC1=C(C(=O)CCC1)C2c1ccc(Sc2nc3cc(OC(F)F)ccc3[nH]2)o1` (stereo not shown) [Example 126, 9-[5-(5-Difluoromethoxy-1H-benzimidazol-2-ylsulfanyl)-furan-2-yl]-8-oxo-4,5,6,7,8,9-hexahydro-2H-pyrrolo[3,4-b]quinoline-3-carboxylic acid ethyl ester], the values for the 50% inhibitory concentration (IC50) in assay [1] and in assay [2] were 41 nM and 13 nM, respectively.
The corresponding values for `CCOC(=O)c1[nH]cc2c1NC1=C(C(=O)CN(C(=O)OC(C)(C)C)C1)C2c1ccc(Sc2nc3cc(OC(F)F)ccc3[nH]2)o1` (stereo not shown) [Example 127] are 566 nM and 93 nM.
For `CCOC(=O)c1[nH]cc2c1NC1=C(C(=O)CNC1)C2c1ccc(Sc2nc3cc(OC(F)F)ccc3[nH]2)o1` (stereo not shown) [Example 128, 9-[5-(5-Difluoromethoxy-1H-benzimidazol-2-ylsulfanyl)-furan-2-yl]-8-oxo-4,5,6,7,8,9-hexahydro-2H-pyrrolo[3,4-b]-1,7-naphthyridine-3-carboxylic acid ethyl ester hydrochloride], the 50% inhibitory concentration (IC50) in assay [1] was 114 nM; in assay [2], 17 nM.
Turning to `CCOC(=O)c1[nH]cc2c1NC1=C(C(=O)CN(C(=O)OC(C)(C)C)C1)C2c1ccc(Sc2nc3cc(Cl)ccc3[nH]2)o1` (stereo not shown) [Example 130], the IC50 in assay [1] is 434 nM; in assay [2], 37 nM.
The corresponding values for `CCOC(=O)c1[nH]cc2c1NC1=C(C(=O)CNC1)C2c1ccc(Sc2nc3cc(Cl)ccc3[nH]2)o1` (stereo not shown) [Example 131, 9-[5-(5-Chloro-1H-benzimidazol-2-ylsulfanyl)-furan-2-yl]-8-oxo-4,5,6,7,8,9-hexahydro-2H-pyrrolo[3,4-b]-1,7-naphthyridine-3-carboxylic acid ethyl ester hydrochloride] are 82 nM and 10 nM.
The like results for `CCOC(=O)c1[nH]cc2c1NC1=C(C(=O)CCC1)C2c1ccc(Sc2nc3cc(C(F)(F)F)ccc3[nH]2)o1` (stereo not shown) [Example 132, 8-Oxo-9-[5-(5-trifluoromethyl-1H-benzimidazol-2-ylsulfanyl)-furan-2-yl]-4,5,6,7,8,9-hexahydro-2H-pyrrolo[3,4-b]quinoline-3-carboxylic acid ethyl ester] were, in that order, 114 nM and 14 nM.
For the compound `CCOC(=O)c1[nH]cc2c1NC1=C(C(=O)CCC1)C2c1ccc(Sc2nc3cc(Cl)c(C)cc3[nH]2)o1` (stereo not shown) [Example 133, 9-[5-(5-Chloro-6-methyl-1H-benzimidazol-2-ylsulfanyl)-furan-2-yl]-8-oxo-4,5,6,7,8,9-hexahydro-2H-pyrrolo[3,4-b]quinoline-3-carboxylic acid ethyl ester], the values for the concentration for half-maximal inhibition (IC50) in assay [1] and in assay [2] were 31 nM and 5 nM, respectively.
The corresponding values for `CCOC(=O)c1[nH]cc2c1NC1=C(C(=O)CN(C(=O)OC(C)(C)C)C1)C2c1ccc(Sc2nc3cc(Cl)c(C)cc3[nH]2)o1` (stereo not shown) [Example 134] are 525 nM and 47 nM.

In general, IC50 refers to the concentration at which inhibition is half-maximal.
